Experimental data: patent publication US20240024313A1, “BIARYL ETHER UREA COMPOUNDS” (Jazz Pharmaceuticals Ireland Limited, priority 2022, published 2024)

What was measured:
[1] = molecular target: T1, Rat FAAH (Rattus norvegicus, UniProt P97612); test: Fluorometric-based Rat FAAH Inhibition Assay; assay type: biochemical; conditions: recombinant rat FAAH 20 nM, 1 hour preincubation, 2 μM AMC Arachidonoyl Amide substrate
T1 construct: truncated rat FAAH encoding amino acids residues 30-579; 6xHis (N); TEV cleavage site (N); made in house; host or cells: E. coli (pLysS cells)
T1 sequence (P97612 30-579): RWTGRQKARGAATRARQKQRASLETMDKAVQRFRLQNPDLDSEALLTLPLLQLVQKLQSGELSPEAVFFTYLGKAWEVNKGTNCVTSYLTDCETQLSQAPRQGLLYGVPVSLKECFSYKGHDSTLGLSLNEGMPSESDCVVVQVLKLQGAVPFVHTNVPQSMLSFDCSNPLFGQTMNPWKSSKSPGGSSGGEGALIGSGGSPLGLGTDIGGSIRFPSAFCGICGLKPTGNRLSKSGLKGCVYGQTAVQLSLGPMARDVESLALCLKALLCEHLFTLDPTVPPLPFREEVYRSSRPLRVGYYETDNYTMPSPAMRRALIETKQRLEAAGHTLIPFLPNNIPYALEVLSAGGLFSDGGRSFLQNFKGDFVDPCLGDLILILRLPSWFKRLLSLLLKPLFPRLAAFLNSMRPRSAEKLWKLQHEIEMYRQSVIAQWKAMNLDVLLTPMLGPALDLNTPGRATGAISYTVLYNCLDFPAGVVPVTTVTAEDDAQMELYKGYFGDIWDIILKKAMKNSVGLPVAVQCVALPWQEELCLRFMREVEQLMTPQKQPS
Protocol: Rat FAAH protein was prepared using the following method: Recombinant truncated rat FAAH encoding amino acids residues 30-579 were expressed in E. coli as NH2-terminal 6×HIS-tag and a TEV-cleavage site fusion protein. 6 L pLysS cells were induced to express FAAH. Cells were lysed and centrifuged. The insoluble pellet was resuspended using a Dounce homogenizer in CHAPS-containing buffer and allowed to stir at 4° C. for 1 hour. The resuspended pellet was then centrifuged and rat FAAH in the clarified supernatant was purified by IMAC. The purest protein fractions were pooled, and buffer exchanged into storage buffer by dialysis. The protein concentration was determined by Bradford assay aliquots were flash frozen in liquid nitrogen.
Fluorometric-based Rat FAAH Inhibition Assay was performed using the following method:
(§1) Assays were performed in standard-volume, black, non-binding 384-well plates (Corning #3654). All additions were carried out using the Agilent Bravo Automated Liquid Handler using an 384ST pipetting head.
(§2) FAAH reactions contained 20 nM Fatty Acid Amide Hydrolase (rat, recombinant) diluted in an assay buffer containing Tris-EDTA, pH 9.0 at ambient temperature. To obtain 20 nM FAAH per well, a working stock was made at 50 nM by diluting 150 μL of 7.93 μM enzyme to 24 mL of assay buffer, then adding 20 μL to each well. Using the mother plates (prepared at 1000× in DMSO), the Agilent Bravo performed a 1:100 dilution step in assay buffer prior to adding 5 μL to each well for an additional 1:10 dilution.
Plates were incubated at room temperature for 1 hour.
(§3) To initialize the reaction a final concentration of 2 μM of AMC Arachidonoyl Amide was added to each well. To obtain this concentration a working stock was made at 4 μM by adding 960 μL of 0.1 mM AMC stock to 24 mL of assay buffer, then 25 μL was added to each well. This stock was made at 4% DMSO for a final assay concentration contribution of 2% DMSO.
(§4) The total reaction volume per well was 50 μL. The reactions were allowed to proceed at 37° C. for 30 minutes with fluorescence monitored using a Cytation 5 Multimode imaging plate reader (BioTek Instruments) using excitation and emission wavelengths of 350/10 nm and 455/10 nm, respectively. Rates (RFU/min) were calculated from the linear portion of the reaction curves using a linear least squares curve fitting method using Gen5 v3.10. Calculated rates were then normalized to DMSO control and presented as percentages. Data were graphed and statistics were performed using GraphPad Prism v9.0.1.
Data for the Fluorometric-based Rat FAAH Inhibition Assay are recited in Table 2 and in FIG. 2.

[2] = molecular target: T2, Human FAAH (Homo sapiens, UniProt O00519); test: Fluorometric-based Human FAAH Inhibition Assay; assay type: biochemical; conditions: recombinant human FAAH 125 nM, 1 hour preincubation, AMC Arachidonoyl Amide substrate
T2 construct: Recombinant human FAAH encoding full length amino acids were expressed in insect cells; made in house; host or cells: insect cells (baculovirus infection)
T2 sequence (O00519 1-579): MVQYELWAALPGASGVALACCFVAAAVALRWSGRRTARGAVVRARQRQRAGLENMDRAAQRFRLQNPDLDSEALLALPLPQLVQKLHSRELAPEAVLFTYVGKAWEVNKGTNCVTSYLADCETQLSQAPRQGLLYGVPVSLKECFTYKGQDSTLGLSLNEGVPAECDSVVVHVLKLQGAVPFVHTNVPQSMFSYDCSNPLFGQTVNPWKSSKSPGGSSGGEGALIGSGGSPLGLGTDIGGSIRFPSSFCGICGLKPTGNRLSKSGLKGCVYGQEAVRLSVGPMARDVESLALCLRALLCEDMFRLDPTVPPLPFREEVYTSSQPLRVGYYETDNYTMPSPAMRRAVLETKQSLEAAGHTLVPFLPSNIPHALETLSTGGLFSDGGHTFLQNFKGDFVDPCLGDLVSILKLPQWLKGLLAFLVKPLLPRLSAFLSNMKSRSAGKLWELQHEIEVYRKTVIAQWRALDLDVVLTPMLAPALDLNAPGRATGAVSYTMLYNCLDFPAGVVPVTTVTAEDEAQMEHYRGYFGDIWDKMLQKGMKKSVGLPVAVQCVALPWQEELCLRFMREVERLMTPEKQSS
Protocol: Human FAAH protein was prepared using the following method: Recombinant human FAAH encoding full length amino acids were expressed in insect cells using baculovirus infection as C-terminal (non-cleavable) 8×His tag fusion protein. Protein was supplied as cell lysate: resuspended 100,000×g pellet at 5.12 mg/ml a buffer containing 20 mM HEPES, pH 7.8, 150 mM NaCl, 1 mM EDTA, 1 mM DTT, 0.5% CHAPS. Specific activity was determined to be 844 U/mg.
Fluorometric-based Human FAAH Inhibition Assay was performed using the following method:
as §1
as §2, with “contained 125” for “contained 20”, “Hydrolase (human,” for “Hydrolase (rat,”, “obtain 125” for “obtain 20”, “at 312.5” for “at 50”, “diluting 94” for “diluting 150”, “of 79.63” for “of 7.93”
Plates were incubated at room-temperature for 1 hour.
as §3, with “the reaction,” for “the reaction”, “of […]” for “of 2 μM”, “this concentration,” for “this concentration”, “at […]” for “at 4 μM”
as §4
Data for the Fluorometric-based Human FAAH Inhibition Assay are recited in Table 2 and in FIG. 1.

[3] = Phase 1 crossover pharmacokinetic study of Compound of Formula (II) formulations in healthy adult participants; conditions: human, in vivo, oral, preliminary data; for AUC(0-t) / Cmax: 4 mg
Protocol: Partial preliminary data on Compound of Formula (II), Compound B, and Compound C) were obtained from a phase 1, single-center, open-label, randomized, 3-period, 2-sequence crossover study to characterize the PK, safety, and tolerability of Compound of Formula (II) formulations (capsule vs tablet) in healthy adult participants. In Periods 1 and 2, participants were randomized to receive 4 mg Compound of Formula (II) capsule formulation or 4 mg Compound of Formula (II) tablet formulation.
Pharmacokinetic parameters for compound of Formula (II), Compound B, and Compound C following single dose of 4 mg of compound of Formula (II) are provided in Table 3. Pharmacokinetic parameters for compound of Formula (II), Compound B, and Compound C following multiple doses of 4 mg of compound of Formula (II) are provided in Table 4.

[4] = following multiple doses of 4 mg of compound of Formula (II)
[5] = following single dose of 4 mg of compound of Formula (II)

| Structure (SMILES) | IC50 [1] [nM] | IC50 [2] [nM] | AUC(0-t) [3, 4] [ng·h/mL] | Cmax [3, 4] [ng/mL] | AUC(0-t) [3, 5] [ng·h/mL] | Cmax [3, 5] [ng/mL] | AUC [3, 4] [ng·h/mL] | Tmax [3, 4] [h] | half-life [3, 4] [h] |
| --- | --- | --- | --- | --- | --- | --- | --- | --- | --- |
| O=C(Nc1cccnn1)N1CC/C(=C\c2cccc(Oc3ccc(C(F)(F)F)cn3)c2)[C@@H](O)C1 [Compound A-RE, (R,E)-3-hydroxy-N-(pyridazin-3-yl)-4-(3-((5-(trifluoromethyl)pyridin-2-yl)oxy)benzylidene)piperidine-1-carboxamide] | 56.8 ± 16.6 | 9.01 ± 0.68 | – | – | – | – | – | – | – |
| O=C1CCC(NC(=O)N2CCC(=Cc3cccc(Oc4ccc(C(F)(F)F)cn4)c3)CC2)=NN1 [Compound B, N-(6-oxo-1,4,5,6-tetrahydropyridazin-3-yl)-4-(3-((5-(trifluoromethyl)pyridin-2-yl)oxy)benzylidene)piperidine-1-carboxamide] | 85.2 ± 9.33 | 12.4 ± 0.89 | 906 | 9.3 | 0.6 | 0.3 | 208 | 24 | 85 |
| FC(F)(F)c1ccc(Oc2cccc(C=C3CCNCC3)c2)nc1 [Compound E, 2-(3-(piperidin-4-ylidenemethyl)phenoxy)-5-(trifluoromethyl)pyridine] | – | 34400 ± 24100 | – | – | – | – | – | – | – |
| O=C(Nc1cccnn1)N1CC/C(=C\c2cccc(Oc3ccc(C(F)(F)F)cn3)c2)[C@H](O)C1 [Compound A-SE, (S,E)-3-hydroxy-N-(pyridazin-3-yl)-4-(3-((5-(trifluoromethyl)pyridin-2-yl)oxy)benzylidene)piperidine-1-carboxamide] | 3720 ± 542 | 439 ± 14.7 | – | – | – | – | – | – | – |
| O=C(Nc1cccnn1)N1CC/C(=C/c2cccc(Oc3ccc(C(F)(F)F)cn3)c2)[C@H](O)C1 [Compound A-SZ, (S,Z)-3-hydroxy-N-(pyridazin-3-yl)-4-(3-((5-(trifluoromethyl)pyridin-2-yl)oxy)benzylidene)piperidine-1-carboxamide] | 3290 ± 583 | 300 ± 54.9 | – | – | – | – | – | – | – |
| O=C(Nc1cccnn1)N1CCC(O)(C(O)c2cccc(Oc3ccc(C(F)(F)F)cn3)c2)CC1 (centres unmarked) [Compound D, 4-hydroxy-4-(hydroxy(3-((5-(trifluoromethyl)pyridin-2-yl)oxy)phenyl)methyl)-N-(pyridazin-3-yl)piperidine-1-carboxamide] | 3480 ± 654 | 555 ± 84.4 | – | – | – | – | – | – | – |
| O=C(O)CCC(=O)NC(=O)N1CCC(=Cc2cccc(Oc3ccc(C(F)(F)F)cn3)c2)CC1 [Compound C, 4-oxo-4-(4-(3-((5-(trifluoromethyl)pyridin-2-yl)oxy)benzylidene)piperidine-1-carboxamido)butanoic acid] | 39.6 ± 5.84 | 758 ± 11.2 | 281 | 3.9 | 1.1 | 0.4 | 86 | 8 | 40.4 |
| O=C(Nc1cccnn1)N1CC/C(=C/c2cccc(Oc3ccc(C(F)(F)F)cn3)c2)[C@@H](O)C1 [Compound A-RZ, (R,Z)-3-hydroxy-N-(pyridazin-3-yl)-4-(3-((5-(trifluoromethyl)pyridin-2-yl)oxy)benzylidene)piperidine-1-carboxamide] | 170 ± 43 | 39.3 ± 2.89 | – | – | – | – | – | – | – |
| O=C(Nc1cccnn1)N1CCC(=Cc2cccc(Oc3ccc(C(F)(F)F)cn3)c2)CC1 [Compound of Formula (II), reference compound] | 10.2 ± 1.17 | 3.56 ± 0.67 | 1340 | 46.6 | 138 | 31.3 | 625 | 2 | 32.2 |
